Measurements as given in ChEMBL document CHEMBL4033645, “Design, synthesis, and docking studies of quinazoline analogues bearing aryl semicarbazone scaffolds as potent EGFR inhibitors” (Bioorg Med Chem, 2017).

How the values were obtained:
A549 [1] = experiment: Cytotoxicity against human A549 cells assessed as decrease in cell viability after 72 hrs by MTT assay; type: functional, cell-based; conditions: A549, 72 h
HepG2 [2] = experiment: Cytotoxicity against human HepG2 cells assessed as decrease in cell viability after 72 hrs by MTT assay; type: functional, cell-based
MCF7 [3] = experiment: Cytotoxicity against human MCF7 cells assessed as decrease in cell viability after 72 hrs by MTT assay; type: functional, cell-based
PC-3 = experiment: Cytotoxicity against human PC3 cells assessed as decrease in cell viability after 72 hrs by MTT assay; type: functional, cell-based
A549 [4] = experiment: Induction of apoptosis in human A549 cells after 48 hrs by Annexin V-FITC/propidium iodide-staining based by flow cytometric analysis; type: functional, cell-based
[5] = target: Epidermal growth factor receptor (Homo sapiens, UniProt P00533); experiment: Inhibition of EGFR (unknown origin) using FAM-labeled peptide as substrate measured after 10 mins by mobility shift assay
Chain of Epidermal growth factor receptor (P00533 whole entry): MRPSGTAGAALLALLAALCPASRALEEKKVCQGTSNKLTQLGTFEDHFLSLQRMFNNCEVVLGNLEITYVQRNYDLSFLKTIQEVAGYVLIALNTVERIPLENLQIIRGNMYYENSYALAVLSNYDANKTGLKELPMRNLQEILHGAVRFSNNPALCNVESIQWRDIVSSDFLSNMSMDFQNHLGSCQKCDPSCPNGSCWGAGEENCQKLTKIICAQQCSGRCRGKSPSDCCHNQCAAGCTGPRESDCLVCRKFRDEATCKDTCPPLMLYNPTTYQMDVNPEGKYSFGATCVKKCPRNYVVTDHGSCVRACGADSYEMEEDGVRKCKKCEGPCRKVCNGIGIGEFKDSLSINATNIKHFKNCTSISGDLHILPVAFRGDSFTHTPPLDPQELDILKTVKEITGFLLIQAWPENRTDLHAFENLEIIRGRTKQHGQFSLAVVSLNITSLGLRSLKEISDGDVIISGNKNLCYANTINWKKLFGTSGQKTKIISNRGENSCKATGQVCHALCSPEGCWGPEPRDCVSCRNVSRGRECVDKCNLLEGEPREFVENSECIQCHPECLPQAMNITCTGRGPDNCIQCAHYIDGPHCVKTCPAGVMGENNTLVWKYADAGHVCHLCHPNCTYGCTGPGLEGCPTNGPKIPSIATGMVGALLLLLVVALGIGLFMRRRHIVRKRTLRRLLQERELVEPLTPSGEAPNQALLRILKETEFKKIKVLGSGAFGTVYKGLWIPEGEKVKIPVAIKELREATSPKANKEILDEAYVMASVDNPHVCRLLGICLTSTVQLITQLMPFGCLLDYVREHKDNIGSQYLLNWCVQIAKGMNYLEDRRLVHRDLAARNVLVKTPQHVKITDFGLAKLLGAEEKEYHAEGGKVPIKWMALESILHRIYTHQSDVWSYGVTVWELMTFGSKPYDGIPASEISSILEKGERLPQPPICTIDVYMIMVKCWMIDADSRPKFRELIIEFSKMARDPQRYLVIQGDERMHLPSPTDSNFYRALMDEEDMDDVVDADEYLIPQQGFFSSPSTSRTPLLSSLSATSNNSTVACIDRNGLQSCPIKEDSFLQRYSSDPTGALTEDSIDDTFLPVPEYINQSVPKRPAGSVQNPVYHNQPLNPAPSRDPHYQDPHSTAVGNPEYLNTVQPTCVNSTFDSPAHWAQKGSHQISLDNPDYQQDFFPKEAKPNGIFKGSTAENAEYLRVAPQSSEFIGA

A549 [6] = experiment: Induction of apoptosis in human A549 cells assessed as viable cells at 0.5 uM after 48 hrs by Annexin V-FITC/propidium iodide-staining based by flow cytometric analysis (reference value: 93.27%); type: functional; conditions: A549, 48 h, read-out: Activity
A549 [7] = experiment: Induction of apoptosis in human A549 cells assessed as early apoptotic cells at 0.5 uM after 48 hrs by Annexin V-FITC/propidium iodide-staining based by flow cytometric analysis (reference value: 3.40%); type: functional
A549 [8] = experiment: Induction of apoptosis in human A549 cells assessed as late apoptotic cells at 0.5 uM after 48 hrs by Annexin V-FITC/propidium iodide-staining based by flow cytometric analysis (reference value: 2.69%); type: functional
A549 [9] = experiment: Induction of apoptosis in human A549 cells assessed as necrotic cells at 0.5 uM after 48 hrs by Annexin V-FITC/propidium iodide-staining based by flow cytometric analysis (reference value: 0.64%); type: functional
A549 [10] = experiment: Induction of apoptosis in human A549 cells assessed as viable cells at 1 uM after 48 hrs by Annexin V-FITC/propidium iodide-staining based by flow cytometric analysis (reference value: 93.27%); type: functional; conditions: A549, 48 h, read-out: Activity
A549 [11] = experiment: Induction of apoptosis in human A549 cells assessed as early apoptotic cells at 1 uM after 48 hrs by Annexin V-FITC/propidium iodide-staining based by flow cytometric analysis (reference value: 3.40%); type: functional
A549 [12] = experiment: Induction of apoptosis in human A549 cells assessed as late apoptotic cells at 1 uM after 48 hrs by Annexin V-FITC/propidium iodide-staining based by flow cytometric analysis (reference value: 2.69%); type: functional
A549 [13] = experiment: Induction of apoptosis in human A549 cells assessed as necrotic cells at 1 uM after 48 hrs by Annexin V-FITC/propidium iodide-staining based by flow cytometric analysis (reference value: 0.64%); type: functional
HepG2 [14] = experiment: Potency index, ratio of afatinib IC50 to compound IC50 for human HepG2 cells; type: functional
MCF7 [15] = experiment: Potency index, ratio of afatinib IC50 to compound IC50 for human MCF7 cells; type: functional
[16] = Homo sapiens, HepG2, 72 h, read-out: IC50
[17] = Homo sapiens, PC-3, 72 h, read-out: IC50
[18] = Homo sapiens, MCF7, 72 h, read-out: IC50

Row | Compound | IC50 (A549 [1]) [µM] | IC50 (HepG2 [2]; [16]) [µM] | IC50 (PC-3; [17]) [µM] | IC50 (MCF7 [3]; [18]) [µM] | also measured
1 | COc1cc2ncnc(Nc3ccc(F)c(Cl)c3)c2cc1NC(=O)N/N=C/c1ccc(O)c(Br)c1 | 28.6 | 23.8 | 15.3 |  | IC50 (MCF7 [3]; mcf7): Not Active
2 | COc1ccc(/C=N/NC(=O)Nc2cc3c(Nc4ccc(F)c(Cl)c4)ncnc3cc2O[C@H]2CCOC2)cc1 | 33.1 | 28.8 | 34.1 | 27.3 | 
3 | CCN(CC)c1ccc(/C=N/NC(=O)Nc2cc3c(Nc4ccc(F)c(Cl)c4)ncnc3cc2OC)c(O)c1 | 27.3 | 29.3 | 34.3 | 27.3 | 
4 | COc1cc2ncnc(Nc3ccc(F)c(Cl)c3)c2cc1NC(=O)N/N=C/c1ccc(O)cc1O | 31.4 | 32.1 | 29.5 | 36.2 | 
5 | COc1cc2ncnc(Nc3ccc(F)c(Cl)c3)c2cc1NC(=O)N/N=C/c1cccc(Cl)c1Cl | 35.3 | 26.1 | 24.4 | 28.7 | 
6 | COc1cc2ncnc(Nc3ccc(F)c(Cl)c3)c2cc1NC(=O)N/N=C/c1ccc(C#N)cc1 | 32.2 | 34.1 | 36.5 |  | 
7 | O=C(N/N=C/c1cccc(Cl)c1Cl)Nc1cc2c(Nc3ccc(F)c(Cl)c3)ncnc2cc1O[C@H]1CCOC1 | 25 | 16.9 | 27.4 |  | IC50 (MCF7 [3]; mcf7): Not Active
8 | COc1cc2ncnc(Nc3ccc(F)c(Cl)c3)c2cc1NC(=O)N/N=C/c1ccc(O)cc1 | 7.61 | 26.3 | 16.6 | 28.6 | 
9 | COc1ccc(/C=N/NC(=O)Nc2cc3c(Nc4ccc(F)c(Cl)c4)ncnc3cc2O[C@H]2CCOC2)c(OC)c1OC | 25.2 | 29.3 | 25.6 | 33.8 | 
10 | O=C(N/N=C/c1ccc([N+](=O)[O-])cc1)Nc1cc2c(Nc3ccc(F)c(Cl)c3)ncnc2cc1O[C@H]1CCOC1 | 31.2 | 35.3 | 33.5 |  | IC50 (MCF7 [3]; mcf7): Not Active
11 | O=C(N/N=C/c1ccc(O)cc1O)Nc1cc2c(Nc3ccc(F)c(Cl)c3)ncnc2cc1O[C@H]1CCOC1 | 9.36 | 4.53 | 7.54 | 5.35 | 
12 | O=C(N/N=C/c1ccc(O)c(Br)c1)Nc1cc2c(Nc3ccc(F)c(Cl)c3)ncnc2cc1O[C@H]1CCOC1 | 4.31 | 0.66 | 5.23 | 2.69 | 
13 | COc1cc2ncnc(Nc3ccc(F)c(Cl)c3)c2cc1NC(=O)N/N=C/c1cc(C(C)(C)C)c(O)c(C(C)(C)C)c1 | 37.1 | 26.8 | 28.7 | 28.3 | 
14 | O=C(N/N=C/c1cccc(Br)c1)Nc1cc2c(Nc3ccc(F)c(Cl)c3)ncnc2cc1O[C@H]1CCOC1 | 10.7 | 32.3 | 15.5 | 12.4 | 
15 | COc1cc2ncnc(Nc3ccc(F)c(Cl)c3)c2cc1NC(=O)N/N=C/c1ccc(F)cc1 | 26.6 | 31.1 | 36.5 | 35.1 | 
16 | CC(C)(C)c1cc(/C=N/NC(=O)Nc2cc3c(Nc4ccc(F)c(Cl)c4)ncnc3cc2O[C@H]2CCOC2)cc(C(C)(C)C)c1O | 18.9 | 12.5 | 13.1 | 14.5 | 

Row | Compound | IC50 (A549 [1]) [µM] | IC50 (HepG2 [2]; [16]) [µM] | IC50 (PC-3; [17]) [µM] | IC50 (MCF7 [3]; [18]) [µM] | also measured
17 | COc1cc2ncnc(Nc3ccc(F)c(Cl)c3)c2cc1NC(=O)N/N=C/c1cc(Br)c(O)c(Br)c1 | 34.6 | 36.8 | 41.5 | 30.2 | 
18 | O=C(N/N=C/c1cc(Br)c(O)c(Br)c1)Nc1cc2c(Nc3ccc(F)c(Cl)c3)ncnc2cc1O[C@H]1CCOC1 | 8.91 | 2.74 | 6.16 | 5.91 | 
19 | O=C(N/N=C/c1ccc(F)cc1Cl)Nc1cc2c(Nc3ccc(F)c(Cl)c3)ncnc2cc1O[C@H]1CCOC1 | 27.2 | 26.1 | 28.4 | 32.2 | 
20 | O=C(N/N=C/c1ccc(O)cc1)Nc1cc2c(Nc3ccc(F)c(Cl)c3)ncnc2cc1O[C@H]1CCOC1 | 1.32 | 0.07 | 4.89 | 0.91 | Activity (A549 [4]): Dose-dependent effect; IC50 [5]: 0.056 µM; viability at 0.5 µM (A549 [6]): 83.9%; Activity (A549 [7]): 6.81%; Activity (A549 [8]): 6.94%; Activity (A549 [9]): 2.37%; viability at 1 µM (A549 [10]): 77.9%; Activity (A549 [11]): 8.81%; Activity (A549 [12]): 8.94%; Activity (A549 [13]): 4.37%; Ratio IC50 (HepG2 [14]): 19; Ratio IC50 (MCF7 [15]): 2.9
21 | O=C(N/N=C/c1ccc(F)cc1)Nc1cc2c(Nc3ccc(F)c(Cl)c3)ncnc2cc1O[C@H]1CCOC1 | 35.1 |  |  | 28.2 | IC50 (HepG2 [2]; hepg2): Not Active; IC50 (PC-3; pc-3): Not Active
22 | COc1cc2ncnc(Nc3ccc(F)c(Cl)c3)c2cc1NC(=O)N/N=C/c1cc(OC)c(OC)c(OC)c1 | 32.1 | 30.1 | 36.5 | 30.7 | 
23 | N#Cc1ccc(/C=N/NC(=O)Nc2cc3c(Nc4ccc(F)c(Cl)c4)ncnc3cc2O[C@H]2CCOC2)cc1 | 29.1 | 26.4 | 28.1 |  | 
24 | COc1cc2ncnc(Nc3ccc(F)c(Cl)c3)c2cc1NC(=O)N/N=C/c1cccc(Br)c1 | 28.1 |  |  | 27.1 | IC50 (HepG2 [2]; hepg2): Not Active; IC50 (PC-3; pc-3): Not Active
25 | CN(C)C/C=C/C(=O)Nc1cc2c(Nc3ccc(F)c(Cl)c3)ncnc2cc1O[C@H]1CCOC1 [AFATINIB] | 1.4 |  | 3.96 |  | 
26 | COc1cc2ncnc(Nc3ccc(F)c(Cl)c3)c2cc1NC(=O)N/N=C/c1ccc(OC)c(OC)c1OC | 32.8 | 31.2 | 29.3 |  | IC50 (MCF7 [3]; mcf7): Not Active
27 | COc1cc2ncnc(Nc3ccc(F)c(Cl)c3)c2cc1NC(=O)N/N=C/c1ccc([N+](=O)[O-])cc1 | 35.1 | 34.1 | 32.4 | 36.8 | 
28 | CCN(CC)c1ccc(/C=N/NC(=O)Nc2cc3c(Nc4ccc(F)c(Cl)c4)ncnc3cc2O[C@H]2CCOC2)c(O)c1 | 15.7 | 15.7 | 4.59 | 15.6 | 
29 | COc1cc(/C=N/NC(=O)Nc2cc3c(Nc4ccc(F)c(Cl)c4)ncnc3cc2O[C@H]2CCOC2)cc(OC)c1OC | 26.4 | 31.2 | 29.6 | 26.5 | 
30 | COc1cc2ncnc(Nc3ccc(F)c(Cl)c3)c2cc1NC(=O)N/N=C/c1ccc(F)cc1Cl | 28.2 | 29.2 | 25.7 |  | IC50 (MCF7 [3]; mcf7): Not Active
31 | COc1ccc(/C=N/NC(=O)Nc2cc3c(Nc4ccc(F)c(Cl)c4)ncnc3cc2OC)cc1 | 28.1 | 21.3 | 16.5 | 8.14 | 
